Assay results as given in patent US20070099983A1, “Aminocyclohexyl ether compounds and uses thereof” (Cardiome Pharma Corp., priority 2003, published 2007).

Columns and labels:
[1] = test system: sustained AF maintained during continuous vagal nerve stimulation; test: Canine vagal-AF model: termination of sustained AF; type: in vivo, dog; settings: IV, anesthetized dogs
Method: St.-Georges et al., 1997). Dogs are ventilated mechanically with room air supplemented with oxygen via an endotracheal tube at 20 to 25 breaths/minute with a tidal volume obtained from a monogram. […] Catheters are inserted into the femoral artery for blood pressure recording and blood gas measurement, and into both femoral veins for drug administration and venous sampling. […] Body temperature is maintained at 37-40° C. with a heating blanket. The heart is exposed via a medial thoracotomy and a pericardial cradle is created. […] Drug effects to terminate sustained AF maintained during continuous vagal nerve stimulation are assessed. […] The vagal stimulation voltage is adjusted under control conditions, and then readjusted after each treatment to maintain the same bradycardic effect. […] Diastolic threshold and ERP are determined in duplicate and averaged to give a single value. […] The interval between the stimulus artefact and the peak of the local electrogram is measured as an index of conduction velocity. […] The stimulus voltage-heart rate relationship for vagal nerve stimulation is determined under control conditions in most experiments. […] After the termination of AF, the diastolic threshold and ERP of the atrium and ventricle are determined. […] Group data are expressed as the mean±SEM. […]

conscious rats = test: Determination of CNS toxicity: convulsions in conscious rats on increasing i.v. infusion; type: in vivo; settings: rat, in vivo; for convulsion dose: iv

Row | Structure (SMILES) | Median dose required for termination of AF [1] | Mean dose required for termination of AF ([1]; mean±EM) | cum conv dose (conscious rats) | convulsion dose (conscious rats)
1 | O=C(NCC1CCCCN1)c1cc(OCC(F)(F)F)ccc1OCC(F)(F)F (stereo not shown) [Flecainide] | 2.5 µmol/kg | 4 ± 2 µmol/kg |  | 
2 | Cl.Clc1cccc(Cl)c1CCOC1CCCC[C@H]1N1CCSC1 (stereo partly drawn) [Compound 48, (1R,2R)/(1S,2S)-2-(3-thiazolidinyl)-1-(2,6-dichlorophenethoxy) cyclohexane monohydrochloride] |  |  | 331 µmol/kg | 43 µmol/kg/min
3 | COc1ccc(CCO[C@H]2CCCCC2N2CC[C@@H](O)C2)cc1OC.Cl (stereo partly drawn) [Compound 4, (1R,2R)/(1S,2S)-2-[(3R)-Hydroxypyrrolidinyl]-1-(3,4-dimethoxyphenethoxy)-cyclohexane monohydrochloride] |  |  | 502 µmol/kg | 64 µmol/kg/min
4 | Cl.O[C@@H]1CCN(C2CCCC[C@@H]2OCCc2cc3ccccc3o2)C1 (stereo partly drawn) [Compound 29, (3R)-1-{(1R,2R)/(1S,2S)-2-[2-(1-benzofuran-2-yl)ethoxy]-cyclohexyl}-pyrrolidin-3-ol hydrochloride] |  |  | 65.67 µmol/kg | 10.67 µmol/kg/min
5 | c1ccc2cc(OCCO[C@H]3CCCCC3N3CCOCC3)ccc2c1 (stereo partly drawn) [Compound 33, (1R,2R)/(1S,2S)-[2-(4-morpholinyl)-1-[2-(2-naphthoxy)ethoxy]]-cyclohexane] |  |  | 61.63 µmol/kg | 8 µmol/kg/min
6 | CC(=O)OC1CCN([C@@H]2CCCCC2OCCc2cccc3ccccc23)C1.Cl (stereo partly drawn) [Compound 43, (1R,2R)/(1S,2S)-2-(3-acetoxypyrrolidinyl)-1-(1-naphthenethoxy)cyclo hexane monohydrochloride] |  |  | 65 µmol/kg | 8 µmol/kg/min
7 | COc1ccc(CCO[C@H]2CCCCC2N2CC[C@H](OC(C)=O)C2)cc1OC.Cl (stereo partly drawn) [Compound 13, (3S)-1-{(1R,2R)/(1S,2S)-2-[2-(3,4-dimethoxyphenyl)-ethoxy]cyclohexyl}-pyrrolidin-3-yl acetate hydrochloride] |  |  | 51.9 µmol/kg | 8 µmol/kg/min
8 | Brc1cccc(CCO[C@H]2CCCCC2N2CCOCC2)c1 (stereo partly drawn) [Compound 38, (1R,2R)/(1S,2S)-[2-(4-morpholinyl)-1-(3-bromophenethoxy)]-cyclohexane] |  |  | 131 µmol/kg | 16 µmol/kg/min
9 | Cl.Clc1cccc(Cl)c1COC1CCCC[C@H]1N1CCOCC1 (stereo partly drawn) [Compound 44, (1R,2R)/(1S,2S)-2-(4-morpholinyl)-1-[(2,6-dichlorophenyl)methoxy]cyclohexane monohydrochloride] |  |  | 97 µmol/kg | 16 µmol/kg/min
10 | Brc1ccc(OCCO[C@H]2CCCCC2N2CCOCC2)cc1 (stereo partly drawn) [Compound 34, (1R,2R)/(1S,2S)-[2-(4-morpholinyl)-1-[2-(4-bromophenoxy)-ethoxy]]cyclohexane] |  |  | 83 µmol/kg | 10.7 µmol/kg/min
11 | COc1ccc(CCOC2CCCC[C@H]2N2CCC(=O)C2)cc1OC.Cl (stereo partly drawn) [Compound 18, 1-{(1R,2R)/(1S,2S)-2-[2-(3,4-dimethoxyphenyl)-ethoxy]cyclohexyl}-pyrrolidin-3-one hydrochloride] |  |  | 235 µmol/kg | 32 µmol/kg/min
12 | Cl.O[C@@H]1CCN(C2CCCC[C@@H]2OCCc2ccccc2C(F)(F)F)C1 (stereo partly drawn) [Compound 27, (3R)-1-{(1R,2R)/(1S,2S)-2-[2-(2-Trifluoromethyl-phenyl)ethoxy]-cyclohexyl}-pyrrolidin-3-ol hydrochloride] |  |  | 101.93 µmol/kg | 16 µmol/kg/min
13 | COc1ccc(CCO[C@H]2CCCC[C@@H]2N2CC[C@H](O)C2)cc1OC.Cl [Compound 7, (1S,2S)-2-[(3S)-Hydroxypyrrolidinyl]-1-(3,4-dimethoxyphenethoxy)cyclohexane monohydrochloride] |  |  | 451.67 µmol/kg | 64 µmol/kg/min
14 | COc1ccc(CCO[C@H]2CCCCC2N2CCCC2)cc1OC.Cl (stereo partly drawn) [Compound 10, 1-{(1R,2R)/(1S,2S)-2-[2-(3,4-dimethoxyphenyl)-ethoxy]cyclohexyl}-pyrrolidine hydrochloride] |  |  | 118 µmol/kg | 21.33 µmol/kg/min
